One may read the pIC50 as −log10 of the IC50, conventionally taken in molar units.

pIC50: −log10 of the molar value.

For the experiment, the target named is PD-L1 His protein / PD-1 Fc protein (Homo sapiens, UniProt Q9NZQ7). The experiment can be described thus: HTRF Assay (PD-1/PD-L1 interaction). Type of experiment: binding. Particulars: PD-L1 His 6 nM, PD-1 Fc 6 nM. In outline:
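HTRF: PD-L1 His (6 nM final), compound (3-fold dilutions, 20 μM to 0.001 μM final) and PD-1 Fc (6 nM final) preincubated 15 min at room temperature. Anti-human IgG-XL665 and anti-6HIS Tb cryptate (mixed at 6.7 nM and 0.35 nM) then added for 1 h at room temperature before reading.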

Sequence of PD-L1 His protein / PD-1 Fc protein (Q9NZQ7 19-238 limits assumed): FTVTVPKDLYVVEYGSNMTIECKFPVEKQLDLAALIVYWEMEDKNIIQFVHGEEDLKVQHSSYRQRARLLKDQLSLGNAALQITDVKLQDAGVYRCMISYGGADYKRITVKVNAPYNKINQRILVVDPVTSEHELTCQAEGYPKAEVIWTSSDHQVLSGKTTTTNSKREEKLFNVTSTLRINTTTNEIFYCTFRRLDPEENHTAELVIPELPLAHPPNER

For `Cc1c(COc2cc(OCc3cncc(C#N)c3)c(CN3CC[C@H](C(=O)O)C3)cc2Cl)cccc1-c1cccc(-c2ccc3c(c2)C(=O)N(C)CC(=O)N3CCN2CC[C@H](C(=O)O)C2)c1C` [Example 30, (S)-1-(4-((3′-(1-(2-((S)-3-Carboxypyrrolidin-1-yl)ethyl)-4-methyl-2,5-dioxo-2,3,4,5-tetrahydro-1H-benzo[e][1,4]diazepin-7-yl)-2,2′-dimethyl-[1,1′-biphenyl]-3-yl)methoxy)-5-chloro-2-((5-cyanopyridin-3-yl)methoxy)benzyl)pyrrolidine-3-carboxylic acid], the pIC50 is 9.52.
The molecule `COc1nc(-c2cccc(-c3cccc(-c4ccn5c(=O)c(CNC[C@@H]6CCC(=O)N6)cnc5c4)c3C)c2C)ccc1CNC[C@@H]1CCC(=O)N1` [Example 31, 8-(3′-(6-Methoxy-5-(((((S)-5-oxopyrrolidin-2-yl)methyl)amino)methyl)pyridin-2-yl)-2,2′-dimethyl-[1,1′-biphenyl]-3-yl)-3-(((((S)-5-oxopyrrolidin-2-yl)methyl)amino)methyl)-4H-pyrido[1,2-a]pyrimidin-4-one] had a negative logarithm of the IC50 (pIC50) of 8.64.
Then `COc1nc(-c2cccc(-c3cccc(-c4ccn5c(=O)c(CNC[C@@H]6CCC(=O)N6)cnc5c4)c3C)c2Cl)ccc1CNC[C@@H]1CCC(=O)N1` [Example 32, 8-(2′-Chloro-3′-(6-methoxy-5-(((((S)-5-oxopyrrolidin-2-yl)methyl)amino)methyl)pyridin-2-yl)-2-methyl-[1,1′-biphenyl]-3-yl)-3-(((((S)-5-oxopyrrolidin-2-yl)methyl)amino)methyl)-4H-pyrido[1,2-a]pyrimidin-4-one], with 8.64.
Then `COc1nc(-c2cccc(-c3cccc(-c4ccn5c(=O)c(CNC[C@@H]6CCC(=O)N6)cnc5c4)c3Cl)c2Cl)ccc1CNC[C@@H]1CCC(=O)N1` [Example 33, 8-(2,2′-Dichloro-3′-(6-methoxy-5-(((((S)-5-oxopyrrolidin-2-yl)methyl)amino)methyl)pyridin-2-yl)-[1,1′-biphenyl]-3-yl)-3-(((((S)-5-oxopyrrolidin-2-yl)methyl)amino)methyl)-4H-pyrido[1,2-a]pyrimidin-4-one], with 8.57; and `CNCCCOc1cc(C)c2nc(-c3cccc(-c4cccc(-c5cc(=O)n6cc(OCCCNC)cc(C)c6n5)c4Cl)c3Cl)cc(=O)n2c1` [Example 35, 2,2′-(2,2′-Dichloro-[1,1′-biphenyl]-3,3′-diyl)bis(9-methyl-7-(3-(methylamino)propoxy)-4H-pyrido[1,2-a]pyrimidin-4-one)], with 6.46.
Take `COc1nc(-c2cccc(-c3cccc(-c4ccn5c(=O)c(CNC[C@@H]6CCC(=O)N6)cnc5c4)c3C)c2Cl)cnc1CNC[C@@H]1CCC(=O)N1` [Example 36, 8-(2′-Chloro-3′-(6-methoxy-5-(((((S)-5-oxopyrrolidin-2-yl)methyl)amino)methyl)pyrazin-2-yl)-2-methyl-[1,1′-biphenyl]-3-yl)-3-(((((S)-5-oxopyrrolidin-2-yl)methyl)amino)methyl)-4H-pyrido[1,2-a]pyrimidin-4-one]: the negative-log IC50 (pIC50) was 8.82.
`Cc1c(-c2ccn3c(=O)c(CNC[C@@H]4CCC(=O)N4)cnc3c2)cccc1-c1cccc(-c2ccn3c(=O)c(CNC[C@@H]4CCC(=O)N4)cnc3c2)c1C` [Example 37, 8,8′-(2,2′-Dimethyl-[1,1′-biphenyl]-3,3′-diyl)bis(3-(((((S)-5-oxopyrrolidin-2-yl)methyl)amino)methyl)-4H-pyrido[1,2-a]pyrimidin-4-one)] gave a negative-log IC50 (pIC50) of 6.85.
Regarding `COc1nc(-c2cccc(-c3cccc(-c4cnc(NCCNC(C)=O)c(OC)n4)c3Cl)c2Cl)cnc1NCCNC(C)=O` [Example 38, N,N′-((((2,2′-Dichloro-[1,1′-biphenyl]-3,3′-diyl)bis(3-methoxypyrazine-5,2-diyl))bis(azanediyl))bis(ethane-2,1-diyl))diacetamide], the negative logarithm of the IC50 (pIC50) was 7.70.

The record behind these values is patent US20230143612A1 (Arbutus Biopharma Corporation, priority 2020, published 2023).
